We go through one molecule from patent US6509035B1, “Oral preparation of coenzyme a useful for lowering blood lipid and a method producing for same” (Shanghai Materia Medica Bioengineering Institute, priority 1999, dated 2003).

One assay deals with peripheral platelet. Kind of assay: Effect of CoA on peripheral platelet of experimental dogs. The class given is in vivo, dog. Here is the method:
Object: 10 experimental dogs were used and devided into 2 groups of 5 to which oral or injection preparations of CoA was adminisered, respectively. Their peripheral platelet samples were taken and tested at intervals to observe the differences between before and after administration.
Dosage of CoA: Oral administration group, 100 units per time, twice per day. Injection administration group, 35 units per time, twice per day.
Result: Statistical analysis were carried out on the changes of the number of platelets before and after the administration of CoA to dogs by individual comparison test. It is noted that exogenous CoA can improve the level of platelet in experimental dogs in a short time either administered by oral or injection route.

A further assay relates to serum triglyceride. Kind of assay: Effect of CoA on serum triglyceride in patients with hyperlipemia. The settings on record: oral 35 units three times daily. Type of assay: in vivo, human. The procedure: (§1) Object: Individuals with plasma lipid more than 90% of upper limit of normal person were chosen, i.e. serum cholesterol >230 mg %, or triglyceride >160 mg %, 39 patients in total, 14 male, aged from 28-65; 25 female, aged from 32 to 70.
(§2) Oral dosage of CoA: one tablet per time, 35 units per tablet, administered on empty stomach three times daily. Three months was used as a course of treatment. During the course of the administration, the patients had diet same as the normal and stopped the administration of any other lipid-lowering medicament.
(§3) Measurement of plasma lipid: venous blood samples were taked from 12-14 hrs-fasting patients before administration and one month and 3 months after administration. Concentration of serum cholesterol and triglyceride were measured after isolation of serum. In the meantime, each patients' medical history was inquired, blood pressure was measured and liver function was determined.
(1) Effect on triglyceride: Statistical analysis were carried out on the difference of the concentration of serum triglyceride of hyperlipemia patients between before and after the administration of CoA by individual comparison test.

Another assay has as its system serum cholesterol. Kind of assay: Effect of CoA on serum cholesterol in patients with hyperlipemia. The class given is in vivo, human. The settings on record: oral 35 units three times daily. The procedure:
as §1, §2, §3
(2) Effect on cholesterol: Statistical analysis was carried out on the difference of the concentration of serum cholesterol of patients with hyperlipemia between before and after the administration of CoA by individual comparison test.

For the molecule `CC(C)(COP(=O)(O)OP(=O)(O)OC[C@H]1O[C@@H](n2cnc3c(N)ncnc32)[C@H](O)[C@@H]1OP(=O)(O)O)[C@@H](O)C(=O)NCCC(=O)NCCS` [CoA, coenzyme A], the “Average increment of platelets” value in the assay with peripheral platelet (injection administration group, day 8 (P<0.01)) is recorded as 170,800 /mm^3; with peripheral platelet (oral administration group, day 6 (P<0.05)), 133,000 /mm^3. For the same molecule, the “Average increment of platelet” value was 0.28 10,000/mm^3 in the assay with peripheral platelet (injection administration, 35 units twice per day, sampling time 1); 7.44 10,000/mm^3 with peripheral platelet (injection administration, 35 units twice per day, sampling time 3); 5.48 10,000/mm^3 in the assay with peripheral platelet (injection administration, 35 units twice per day, sampling time 6); 17.08 10,000/mm^3 with peripheral platelet (injection administration, 35 units twice per day, sampling time 8); 11.36 10,000/mm^3 with peripheral platelet (injection administration, 35 units twice per day, sampling time 10); 3.68 10,000/mm^3 in the assay on peripheral platelet (injection administration, 35 units twice per day, sampling time 13). Besides, the “Average increment of platelet” value is recorded as 8.64 10,000/mm^3 in the assay with peripheral platelet (oral administration, 100 units twice per day, sampling time 1); 8.06 10,000/mm^3 in the assay with peripheral platelet (oral administration, 100 units twice per day, sampling time 3); 13.3 10,000/mm^3 with peripheral platelet (oral administration, 100 units twice per day, sampling time 6); 4.25 10,000/mm^3 with peripheral platelet (oral administration, 100 units twice per day, sampling time 8); 1.96 10,000/mm^3 with peripheral platelet (oral administration, 100 units twice per day, sampling time 10); −2.52 10,000/mm^3 with peripheral platelet (oral administration, 100 units twice per day, sampling time 13). The “Average difference of triglyceride concentration between before and after administration (decrement)” value was 64.2 mg % with serum triglyceride (one month) and 75.5 mg % in the assay on serum triglyceride (three months). The “Average difference of serum cholesterol concentration between before and after administration (decrement)” value in the assay with serum cholesterol (one month) worked out at 25.7 mg %; in the assay on serum cholesterol (three months) it was 22.1 mg %.
